Tests used:
[1] = target: recombinant BACE1 protein (Homo sapiens (Human), UniProt P56817); assay: BACE1 biochemical FRET based assay; conditions: for Selectivity: BACE1 versus BACE2; for IC50: FRET, pH 5.0
Excerpt: (1) BACE1 Biochemical FRET Based Assay
(§1) This assay is a Fluorescence Resonance Energy Transfer Assay (FRET) based assay. The substrate for this assay is an APP derived 13 amino acids peptide that contains the ‘Swedish’ Lys-Met/Asn-Leu mutation of the amyloid precursor protein (APP) beta-site secretase cleavage site. This substrate also contains two fluorophores: (7-methoxycoumarin-4-yl) acetic acid (Mca) is a fluorescent donor with excitation wavelength at 320 nm and emission at 405 nm and 2,4-dinitrophenol (Dnp) is a proprietary quencher acceptor. […] Upon cleavage by BACE1, the fluorophore Mca is separated from the quenching group Dnp, restoring the full fluorescence yield of the donor. The increase in fluorescence is linearly related to the rate of proteolysis.
Briefly in a 384-well format recombinant BACE1 protein in a final concentration of 0.04 μg/mL was incubated for 450 minutes at room temperature with […] substrate in incubation buffer (final concentrations: 33.3 mM Citrate buffer pH 5.0, 0.033% PEG, 3% DMSO) in the absence or presence of compound. Next the amount of proteolysis was directly measured by fluorescence measurement at T=0′-120′ and T=450′ (excitation at 320 nm and emission at 405 nm). Results were expressed in RFU (Relative Fluorescence Units), as difference between T450 and Tx (Tx is chosen depending on the reaction speed between 0 and 120 minutes).
(§2) A best-fit curve was fitted by a minimum sum of squares method to the plot of % Controlmin versus compound concentration. From this an IC50 value (inhibitory concentration causing 50% inhibition of activity) can be obtained.
(§3) LC=Median of the low control values
(§4) =Low control: Reaction without enzyme
(§5) HC=Median of the High control values
=High Control: Reaction with enzyme % Effect=100−[(sample−LC)/(HC−LC)*100] % Control=(sample/HC)*100 % Controlmin=(sample−LC)/(HC−LC)*100

[2] = target: recombinant BACE2 protein (Homo sapiens (Human), UniProt Q9Y5Z0); assay: BACE2 biochemical FRET based assay; conditions: pH 5.0
recombinant BACE2 protein, sequence (Q9Y5Z0 63-518): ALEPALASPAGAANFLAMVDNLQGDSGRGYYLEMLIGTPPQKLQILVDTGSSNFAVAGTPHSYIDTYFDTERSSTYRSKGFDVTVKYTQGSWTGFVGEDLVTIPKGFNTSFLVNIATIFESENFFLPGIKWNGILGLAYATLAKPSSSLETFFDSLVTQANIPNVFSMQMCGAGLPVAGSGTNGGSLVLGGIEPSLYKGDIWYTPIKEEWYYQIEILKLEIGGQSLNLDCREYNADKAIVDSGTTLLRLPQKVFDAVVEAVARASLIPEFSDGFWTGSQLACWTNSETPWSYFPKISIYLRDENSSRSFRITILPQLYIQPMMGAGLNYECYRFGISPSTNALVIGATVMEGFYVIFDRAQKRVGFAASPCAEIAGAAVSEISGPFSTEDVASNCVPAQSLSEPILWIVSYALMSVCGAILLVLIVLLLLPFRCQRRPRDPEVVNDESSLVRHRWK
Excerpt: (2) BACE2 Biochemical FRET Based Assay
as §1, with “assay” for “assay is an APP derived 13 amino acids peptide that”, “beta-secretase” for “beta-site secretase”, “the beta-secretase,” for “BACE1,”
Briefly in a 384-well format recombinant BACE2 protein in a final concentration of 0.4 μg/mL was incubated for 450 minutes at room temperature with 10 μM substrate in incubation buffer (final concentrations: 33.3 mM Citrate buffer pH 5.0, 0.033% PEG, 2% DMSO) in the absence or presence of compound. Next the amount of proteolysis was directly measured by fluorescence measurement at T=0 and T=450 (excitation at 320 nm and emission at 405 nm). Results were expressed in RFU (Relative Fluorescence Units), as difference between T450 and TO.
as §2, §3, §4, §5

[3] = test system: Abeta 1-42 in cerebrospinal fluid (CSF); assay: Pharmacology in the beagle dog: beta-amyloid profile in CSF; type: in vivo
Protocol: Test compounds were tested to evaluate the effect on the beta-amyloid profile in cerebrospinal fluid (CSF) of dogs after a single dose, in combination with pharmacokinetic (PK) follow up and limited safety evaluation.
In the case of compounds shown below, two or 4 beagle dogs (1 or 2 male, 1 or 2 female) were dosed with vehicle (1 mL/kg of an aqueous solution of 20% cyclodextrin) and 4 beagle dogs (2 males and 2 females) per dose group were dosed with test compound at the doses indicated in Table 20 in an aqueous 20% cyclodextrin solution with a concentration in mg/mL identical to the dose given in mg/kg) on an empty stomach.
CSF was taken in conscious animals directly from the lateral ventricle via a cannula which was screwed in the skull and covered with subcutaneous tissue and skin, before and at 4, 8, 25 and 49 hours after dosing. Eight hours after dosing the animals got access to their regular meal for 30 minutes. Blood was taken for PK follow up (0.5, 1, 2, 4, 8, 25 and 49 hours) and serum samples for biochemistry were taken before and at 8 and 25h after dosing. The CSF samples were used for measurement of Abeta 1-37, Abeta 1-38, Abeta 1-40 and Abeta 1-42.

recombinant BACE1 protein, sequence (P56817 46-501): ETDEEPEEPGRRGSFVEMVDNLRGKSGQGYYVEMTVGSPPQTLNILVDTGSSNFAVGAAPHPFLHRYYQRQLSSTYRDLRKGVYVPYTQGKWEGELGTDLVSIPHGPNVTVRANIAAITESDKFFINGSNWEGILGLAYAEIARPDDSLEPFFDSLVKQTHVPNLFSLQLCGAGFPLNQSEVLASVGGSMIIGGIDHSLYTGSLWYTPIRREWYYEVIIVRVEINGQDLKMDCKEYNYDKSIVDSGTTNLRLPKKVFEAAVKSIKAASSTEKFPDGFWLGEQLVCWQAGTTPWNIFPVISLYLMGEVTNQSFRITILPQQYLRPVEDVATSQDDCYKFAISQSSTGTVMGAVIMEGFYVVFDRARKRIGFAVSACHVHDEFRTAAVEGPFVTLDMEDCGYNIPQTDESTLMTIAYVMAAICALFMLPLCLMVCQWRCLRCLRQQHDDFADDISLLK

SMILES	Selectivity [1]	IC50 [1] [nM]	IC50 [2] [nM]	% Decrease in Abeta 1-42 at 8 h post dosing compared to own baseline ([3]; single dose 0.31 mg/kg) [%]	% Decrease in Abeta 1-42 at 24 h^(a) or 25 h^(b) post dosing compared to own baseline ([3]; single dose 0.31 mg/kg) [%]	% Decrease in Abeta 1-42 at 49 h post dosing compared to own baseline ([3]; single dose 0.31 mg/kg) [%]	% Decrease in Abeta 1-42 at 8 h post dosing compared to own baseline ([3]; single dose 0.63 mg/kg) [%]	% Decrease in Abeta 1-42 at 24 h^(a) or 25 h^(b) post dosing compared to own baseline ([3]; single dose 0.63 mg/kg) [%]	% Decrease in Abeta 1-42 at 8 h post dosing compared to own baseline ([3]; single dose 2.5 mg/kg) [%]	% Decrease in Abeta 1-42 at 24 h^(a) or 25 h^(b) post dosing compared to own baseline ([3]; single dose 2.5 mg/kg) [%]	% Decrease in Abeta 1-42 at 49 h post dosing compared to own baseline ([3]; single dose 2.5 mg/kg) [%]	% Decrease in Abeta 1-42 at 8 h post dosing compared to own baseline ([3]; single dose 3.75 mg/kg) [%]	% Decrease in Abeta 1-42 at 24 h^(a) or 25 h^(b) post dosing compared to own baseline ([3]; single dose 3.75 mg/kg) [%]	% Decrease in Abeta 1-42 at 49 h post dosing compared to own baseline ([3]; single dose 3.75 mg/kg) [%]	% Decrease in Abeta 1-42 at 49 h post dosing compared to own baseline ([3]; single dose 0.63 mg/kg) [%]	% Decrease in Abeta 1-42 at 8 h post dosing compared to own baseline ([3]; single dose 1.25 mg/kg) [%]	% Decrease in Abeta 1-42 at 24 h^(a) or 25 h^(b) post dosing compared to own baseline ([3]; single dose 1.25 mg/kg) [%]	% Decrease in Abeta 1-42 at 49 h post dosing compared to own baseline ([3]; single dose 1.25 mg/kg) [%]
NC1=N[C@](CF)(c2cc(NC(=O)c3ccc(C(F)(F)F)cn3)ccc2F)[C@H]2COCC[C@H]2O1 [Compound I-105]	17.8	17	302	–	–	–	–	–	–	–	–	–	–	–	–	–	–	–
C[C@@H]1C[C@H]2OC(N)=N[C@](CF)(c3cc(NC(=O)c4cnc(OCF)cn4)ccc3F)[C@H]2CO1 [Compound I-008]	43.7	14.8	646	−57	−28	−25	−58	−48	−81	−76	−49	–	–	–	–	–	–	–
NC1=N[C@](CF)(c2cc(NC(=O)c3cnc(OC(F)F)cn3)ccc2F)[C@H]2COCC[C@H]2O1 [Compound I-076]	63.1	2.8	178	−68	–	–	−65	–	–	–	–	–	–	–	–	–	–	–
NC1=N[C@](CF)(c2cc(NC(=O)c3cnc(OCF)cn3)ccc2F)[C@H]2COCC[C@H]2O1 [Compound I-007]	40.7	7.4	302	−61	−23	–	−69	−48	–	–	–	−64	−82	−40	–	–	–	–
NC1=N[C@](CF)(c2cc(NC(=O)c3cnc(-n4cncn4)cn3)ccc2F)[C@H]2COCC[C@H]2O1 [Compound I-047]	69.2	17	1180	–	–	–	–	–	–	–	–	–	–	–	–	–	–	–
COc1cnc(C(=O)Nc2ccc(F)c([C@@]3(CF)N=C(N)O[C@@H]4CCOC[C@@H]43)c2)cn1 [Compound I-067]	30.2	8.9	269	−36	–	–	−64	–	–	–	–	–	–	–	–	–	–	–
C[C@@H]1C[C@H]2OC(N)=N[C@](CF)(c3cc(NC(=O)c4cnc(OCF)cn4)ccc3Cl)[C@H]2CO1 [Compound I-065]	35.5	9.5	339	–	–	–	−49	−52	–	–	–	–	–	–	−20	−59	−56	−34
